Test: pH-dependent solubility of the active ingredient
Details: acidic range

- Solubility: 0.45%
SMILES: CC(=O)Oc1ccccc1C(=O)O [Acetylsalicylic acid, acetylsalicylic acid]
